Test results: PubChem BioAssay (NCI)
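In this assay, cells in 96-well plates receive the compound at five concentrations for 48 hours. Endpoints are linearly interpolated between the surrounding concentrations. The concentration for 50% growth inhibition is given as GI50. TGI marks complete inhibition of growth.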

What was measured:
Assay in all cases: NCI tumour cell line growth inhibition, 48 h
[1] = tested on: RXF 393 renal
[2] = tested on: NCI-H460 lung
[3] = tested on: MDA-MB-231 breast
[4] = tested on: MCF7 breast
[5] = tested on: IGROV1 ovarian
[6] = tested on: SK-OV-3 ovarian
[7] = tested on: TK-10 renal
[8] = tested on: BT-549 breast
[9] = tested on: MOLT-4 leukemia
[10] = tested on: OVCAR-8 ovarian
[11] = tested on: NCI-H522 lung
[12] = tested on: CCRF-CEM leukemia
[13] = tested on: HS 578T breast
[14] = tested on: SF-268 CNS
[15] = tested on: OVCAR-5 ovarian
[16] = tested on: HCC-2998 colon
[17] = tested on: M14 melanoma
[18] = tested on: NCI-H226 lung
[19] = tested on: HL-60(TB) leukemia
[20] = tested on: SK-MEL-28 melanoma
[21] = tested on: SF-539 CNS
[22] = tested on: SR leukemia
[23] = tested on: KM12 colon
[24] = tested on: UACC-62 melanoma
[25] = tested on: RPMI-8226 leukemia
[26] = tested on: COLO 205 colon
[27] = tested on: SK-MEL-2 melanoma
[28] = tested on: UACC-257 melanoma
[29] = tested on: HT29 colon
[30] = tested on: MALME-3M melanoma
[31] = tested on: EKVX NSCLC
[32] = tested on: SW-620 colon
[33] = tested on: SNB-19 CNS
[34] = tested on: SK-MEL-5 melanoma
[35] = tested on: LOX IMVI melanoma
[36] = tested on: T-47D breast
[37] = tested on: HOP-62 NSCLC
[38] = tested on: A549 NSCLC
[39] = tested on: NCI-H23 lung
[40] = tested on: MDA-MB-468 breast
[41] = tested on: 786-0 renal
[42] = tested on: SNB-75 CNS
[43] = tested on: K-562 leukemia
[44] = tested on: PC-3 prostate
[45] = tested on: DU-145 prostate
[46] = tested on: HCT-15 colon
[47] = tested on: UO-31 renal
[48] = tested on: OVCAR-4 ovarian
[49] = tested on: HCT-116 colon
[50] = tested on: U251 CNS
[51] = tested on: SF-295 CNS
[52] = tested on: CAKI-1 renal
[53] = tested on: A498 renal
[54] = tested on: NCI/ADR-RES ovarian
[55] = tested on: HOP-92 NSCLC
[56] = tested on: OVCAR-3 ovarian
[57] = tested on: MDA-MB-435
[58] = tested on: ACHN renal
[59] = tested on: SN12C renal

CCN(CC)CCOc1ccc(C(=C(C)c2ccccc2)c2ccc(OCCN(CC)CC)cc2)cc1
GI50 [1]: 2470 nM
TGI [1]: 6.46 µM
GI50 [2]: 3.57 µM
TGI [2]: 6.96 µM
GI50 [3]: 3.04 µM
TGI [3]: 6.14 µM
GI50 [4]: 750 nM
TGI [4]: 4.18 µM
GI50 [5]: 4.27 µM
TGI [5]: 9.79 µM
GI50 [6]: 3.69 µM
TGI [6]: 7.16 µM
GI50 [7]: 3.17 µM
TGI [7]: 6.66 µM
GI50 [8]: 4.46 µM
TGI [8]: 8.15 µM
GI50 [9]: 4.71 µM
TGI [9]: 14.8 µM
GI50 [10]: 6.12 µM
TGI [10]: 18.1 µM
GI50 [11]: 3.63 µM
TGI [11]: 7.85 µM
GI50 [12]: 2370 nM
TGI [12]: 6.61 µM
GI50 [13]: 4.08 µM
TGI [13]: 10.2 µM
GI50 [14]: 3.47 µM
TGI [14]: 8.81 µM
GI50 [15]: 3.45 µM
TGI [15]: 7.76 µM
GI50 [16]: 2910 nM
TGI [16]: 6.14 µM
GI50 [17]: 3.34 µM
TGI [17]: 7.71 µM
GI50 [18]: 5.92 µM
TGI [18]: > 23 µM
GI50 [19]: 4.36 µM
TGI [19]: 22.1 µM
GI50 [20]: 3.52 µM
TGI [20]: 6.65 µM
GI50 [21]: 3.35 µM
TGI [21]: 6.4 µM
GI50 [22]: 2440 nM
TGI [22]: > 23 µM
GI50 [23]: 3.47 µM
TGI [23]: 7.22 µM
GI50 [24]: 3.89 µM
TGI [24]: 7.12 µM
GI50 [25]: 3.51 µM
TGI [25]: 8.8 µM
GI50 [26]: 3.36 µM
TGI [26]: 6.89 µM
GI50 [27]: 4.13 µM
TGI [27]: 7.85 µM
GI50 [28]: 4.25 µM
TGI [28]: 8.08 µM
GI50 [29]: 1170 nM
TGI [29]: 5.6 µM
GI50 [30]: 3.61 µM
TGI [30]: 6.73 µM
GI50 [31]: 5.71 µM
TGI [31]: > 23 µM
GI50 [32]: 3.1 µM
TGI [32]: 6.31 µM
GI50 [33]: 4.29 µM
TGI [33]: 8.7 µM
GI50 [34]: 3.57 µM
TGI [34]: 6.78 µM
GI50 [35]: 3.14 µM
TGI [35]: 6.25 µM
GI50 [36]: 2660 nM
TGI [36]: 5.98 µM
GI50 [37]: 3.54 µM
TGI [37]: 7.31 µM
GI50 [38]: 4.54 µM
TGI [38]: 13.3 µM
GI50 [39]: 4.27 µM
TGI [39]: 10.7 µM
GI50 [40]: 1840 nM
TGI [40]: 5.04 µM
GI50 [41]: 2980 nM
TGI [41]: 6.77 µM
GI50 [42]: 3.07 µM
TGI [42]: 6.98 µM
GI50 [43]: 968 nM
TGI [43]: > 23 µM
GI50 [44]: 3.59 µM
TGI [44]: 8.25 µM
GI50 [45]: 6 µM
TGI [45]: > 23 µM
GI50 [46]: 2600 nM
TGI [46]: 6.85 µM
GI50 [47]: 2990 nM
TGI [47]: 5.97 µM
GI50 [48]: 4.56 µM
TGI [48]: 11.7 µM
GI50 [49]: 2390 nM
TGI [49]: 7.09 µM
GI50 [50]: 3.69 µM
TGI [50]: 7.44 µM
GI50 [51]: 3.58 µM
TGI [51]: 7.26 µM
GI50 [52]: 3.42 µM
TGI [52]: 7.07 µM
GI50 [53]: 2730 nM
TGI [53]: 5.62 µM
GI50 [54]: 4.71 µM
TGI [54]: 13.9 µM
GI50 [55]: 1760 nM
TGI [55]: 6.5 µM
GI50 [56]: 2960 nM
TGI [56]: 7.11 µM
GI50 [57]: 3.02 µM
TGI [57]: 6.48 µM
GI50 [58]: 3.63 µM
TGI [58]: 6.97 µM
GI50 [59]: 3.52 µM
TGI [59]: 7.22 µM
